Results reported in patent publication US8269000B2, “Substituted pyrimidine and triazine compounds” (Gruenenthal GmbH, priority 2008, dated 2012).

Key:
[1] = biological target: T1, human B1R (Homo sapiens, UniProt P46663); assay: FLIPR Ca2+ functional study on bradykinin receptor 1 (hB1R CHO K1 cells); format: cell-based; details: % inhibition human B1R at 10 μM, read-out: % inh. (hum. B1R) 10 μM
T1 construct: expressed in transfected cells; host or cells: CHO K1 cells
T1 sequence (P46663 1-353): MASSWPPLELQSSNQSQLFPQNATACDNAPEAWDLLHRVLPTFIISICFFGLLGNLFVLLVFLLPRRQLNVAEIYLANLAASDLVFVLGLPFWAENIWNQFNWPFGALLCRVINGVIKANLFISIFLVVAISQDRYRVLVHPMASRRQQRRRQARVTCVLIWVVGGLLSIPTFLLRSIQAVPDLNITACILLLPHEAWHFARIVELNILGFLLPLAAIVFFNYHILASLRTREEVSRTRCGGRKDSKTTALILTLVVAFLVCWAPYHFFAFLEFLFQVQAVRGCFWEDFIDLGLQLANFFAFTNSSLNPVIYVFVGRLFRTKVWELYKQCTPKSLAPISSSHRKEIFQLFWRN
Method: The agonistic or antagonistic activity of substances can be quantified on the bradykinin receptor 1 (B1R) of the species human and rat using ectopically expressing cell lines (CHO K1 cells) and with the aid of a Ca^2+-sensitive dye (Fluo-4) using a fluorescent imaging plate reader (FLIPR). The indication in % activation is based on the Ca^2+ signal after addition of Lys-Des-Arg^9-bradykinin (0.5 nM) or Des-Arg^9-bradykinin (100 nM). Antagonists lead to suppression of the Ca^2+ influx after the addition of the agonist. % Inhibition compared with the maximum achievable inhibition is indicated.
The agonistic or antagonistic activity of substances can be determined on the bradykinin receptor 1 (B1R) of the species human and rat using the following assay. According to this assay, the Ca^2+ influx through the channel is quantified with the aid of a Ca^2+-sensitive dye (Fluo-4 type, Molecular Probes Europe BV, Leiden, Netherlands) using a Fluorescent Imaging Plate Reader (FLIPR, Molecular Devices, Sunnyvale, USA).
Chinese hamster ovary cells (CHO K1 cells) which have been stably transfected with the human B1R gene (hB1R cells) or with the B1R gene of the rat (rB1R cells) are used. For functional studies, the cells are plated out on black 96-well plates having a clear base (BD Biosciences, Heidelberg, Germany or Greiner, Frickenhausen, Germany) in a density of 20,000-35,000 cells/well. The cells are left overnight at 37° C. and with 5% CO2 in culture medium (hB1R cells: Nutrient Mixture Ham's F12, Gibco Invitrogen GmbH, Karlsruhe, Germany or DMEM, Sigma-Aldrich, Taufkirchen, Germany; rB1R cells: D-MEM/F12, Gibco Invitrogen GmbH, Karlsruhe, Germany), with 10 vol.% FBS (fetal bovine serum, Gibco Invitrogen GmbH, Karlsruhe, Germany or PAN Biotech GmbH, Aidenbach, Germany). On the following day, the cells are loaded for 60 minutes at 37° C. with 2.13 μM Fluo-4 (Molecular Probes Europe BV, Leiden, Netherlands) in HBSS buffer (Hank's buffered saline solution, Gibco Invitrogen GmbH, Karlsruhe, Germany) […] (Sigma-Aldrich, Taufkirchen, Germany) and 10 mM HEPES (Sigma-Aldrich, Taufkirchen, Germany). The plates are then washed twice with HBSS buffer, and HBSS buffer additionally containing 0.1% BSA (bovine serum albumin; Sigma-Aldrich, Taufkirchen, Germany), 5.6 mM glucose and 0.05% gelatin (Merck KGaA, Darmstadt, Germany) is added to the plates. After incubation for a further 20 minutes at room temperature, the plates are inserted into the FLIPR for Ca^2+ measurement. Alternatively, washing is carried out with buffer A (15 mM HEPES, 80 mM NaCl, 5 mM KCl, 1.2 mM CaCl2, 0.7 mM MgSO4, 2 g/l glucose, 2.5 mM probenecid) followed by loading with buffer A with added 2.5 μM Fluo-4 and 0.025% Pluronic F127 (Sigma-Aldrich, Taufkirchen, Germany). The cells are then washed twice with buffer A and incubated for 30 minutes at room temperature with buffer A additionally containing 0.05% BSA and 0.05% gelatin and are then inserted into the FLIPR for Ca^2+ measurement. The Ca^2+-dependent fluorescence is measured before and after the addition of substances (λex=488 nm, λem=540 nm). Quantification is carried out by measuring the highest fluorescence intensity (FC, fluorescence counts) over time.
The FLIPR protocol consists of two substance additions. Test substances (10 μM) are first pipetted onto the cells and the Ca^2+ influx is compared with the control (hB1R: Lys-Des-Arg^9-bradykinin>=50 nM; rB1R: Des-Arg^9-bradykinin 10 μM). This gives the activation in %, based on the Ca^2+ signal after addition of Lys-Des-Arg^9-bradykinin (>=50 nM) or Des-Arg^9-bradykinin (10 μM). After 10-20 minutes' incubation, Lys-Des-Arg^9-bradykinin (hB1R) or Des-Arg^9-bradykinin (rB1R) is applied in the concentration of the EC80, and the influx of Ca^2+ is likewise determined. Antagonists lead to suppression of the Ca^2+ influx. The % inhibition compared with the maximum achievable inhibition is calculated. […]

[2] = biological target: T2, rat B1R (Rattus norvegicus, UniProt P97583); assay: FLIPR Ca2+ functional study on bradykinin receptor 1 (rB1R CHO K1 cells); format: cell-based; details: for inhibition at 10 µM: CHO-K1, % inhibition rat B1R at 10 μM, read-out: % inh. (rat B1R) 10 μM
T2 construct: expressed in transfected cells; host or cells: CHO K1 cells
T2 sequence (P97583 1-337): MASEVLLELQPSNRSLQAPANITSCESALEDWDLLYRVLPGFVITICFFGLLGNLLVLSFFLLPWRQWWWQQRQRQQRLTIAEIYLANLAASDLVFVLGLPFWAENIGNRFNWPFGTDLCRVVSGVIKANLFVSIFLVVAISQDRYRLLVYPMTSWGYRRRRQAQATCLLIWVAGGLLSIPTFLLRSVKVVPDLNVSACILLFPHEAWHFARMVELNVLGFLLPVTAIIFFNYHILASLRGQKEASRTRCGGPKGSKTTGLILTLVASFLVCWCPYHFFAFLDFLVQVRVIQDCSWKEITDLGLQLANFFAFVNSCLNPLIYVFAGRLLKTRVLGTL
Method in brief: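 Antagonism was calculated as % of maximal inhibition of the Ca2+ rise triggered by agonist at EC80 (Lys-Des-Arg9-bradykinin for hB1R, Des-Arg9-bradykinin for rB1R), added 10-20 min after test compound (10 μM or serial dilutions for IC50) to Fluo-4-loaded transfected CHO K1 cells on FLIPR. Duplicates or triplicates, ≥2 independent runs.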

Row | SMILES | inhibition at 10 µM [1] [%] | inhibition at 10 µM [2] [%] | % inh. (rat B1R) 10 μM ([2]; % inhibition rat B1R at 10 μM) [%]
1 | COc1cc(C)c(S(=O)(=O)N2CCC[C@H]2COc2nccc(N3CCN(c4ccncc4)CC3)n2)c(C)c1 [G_CC-019, 2-[[(2S)-1-(4-methoxy-2,6-dimethylphenyl)sulfonyl-2-pyrrolidinyl]methoxy]-4-[4-(4-pyridyl)-1-piperazinyl]pyrimidine] | 100 | 104 | –
2 | COc1cc(C)c(S(=O)(=O)N2C[C@H](F)C[C@H]2COc2nccc(N3CCC4(CCN(c5ccncc5)CC4)CC3)n2)c(C)c1 [Example G-011, 3-[2-[[(2S,4R)-4-fluoro-1-(4-methoxy-2,6-dimethylphenyl)sulfonyl-2-pyrrolidinyl]methoxy]-4-pyrimidinyl]-9-(4-pyridyl)-3,9-diazaspiro[5.5]undecane] | 99 | 99 | –
3 | Cc1cccc(Cl)c1S(=O)(=O)N(CCOc1ccnc(N2CCC3(CCN(c4ccncc4)CC3)CC2)n1)C1CC1 [Example H-006, 2-chloro-N-cyclopropyl-6-methyl-N-[2-[[2-[9-(4-pyridyl)-3,9-diazaspiro[5.5]undecan-3-yl]-4-pyrimidinyl]oxy]ethyl]benzenesulfonamide] | 64 | 92 | –
4 | COc1cc(C)c(S(=O)(=O)N(C)C(COc2ccnc(N3CCC4(CCN(c5ccncc5)CC4)CC3)n2)c2ccccc2)c(C)c1 (centres unmarked) [H_CC-037, 4-methoxy-N,2,6-trimethyl-N-[1-phenyl-2-[[2-[3-(4-pyridyl)-3,9-diazaspiro[5.5]undecan-9-yl]-4-pyrimidinyl]oxy]ethyl]benzenesulfonamide] | 54 | 102 | –
5 | COc1cc(C)c(S(=O)(=O)N(CCOc2nccc(N3CC(N4CCc5cc(CN6CCC6)ccc5C4)C3)n2)C2CC2)c(C)c1 [Example G-020, N-[2-[[4-[3-[6-(1-azetidinylmethyl)-3,4-dihydro-1H-isoquinolin-2-yl]-1-azetidinyl]-2-pyrimidinyl]oxy]ethyl]-N-cyclopropyl-4-methoxy-2,6-dimethylbenzenesulfonamide] | 95 | 101 | –
6 | COc1cc(C)c(S(=O)(=O)N(CCOc2nccc(NCCC3CCN(c4ccncc4)CC3)n2)C2CC2)c(C)c1 [Example G-006, N-cyclopropyl-4-methoxy-2,6-dimethyl-N-[2-[[4-[2-[1-(4-pyridyl)-4-piperidinyl]ethylamino]-2-pyrimidinyl]oxy]ethyl]benzenesulfonamide] | 99 | 94 | –
7 | COc1cc(C)c(S(=O)(=O)N(CCOc2nccc(N3CCc4cc(CN5CCC5)ccc4C3)n2)C2CC2)c(C)c1 [Example G-013, N-[2-[[4-[6-(1-azetidinylmethyl)-3,4-dihydro-1H-isoquinolin-2-yl]-2-pyrimidinyl]oxy]ethyl]-N-cyclopropyl-4-methoxy-2,6-dimethylbenzenesulfonamide] | 92 | 102 | –
8 | COc1cc(C)c(S(=O)(=O)N(CCOc2nccc(N3CCC4(CCC(N5CC(F)(F)C5)CC4)CC3)n2)C2CC2)c(C)c1 [Example G-017, N-cyclopropyl-N-[2-[[4-[9-(3,3-difluoro-1-azetidinyl)-3-azaspiro[5.5]undecan-3-yl]-2-pyrimidinyl]oxy]ethyl]-4-methoxy-2,6-dimethylbenzenesulfonamide] | 22 | 103 | –
9 | COc1cc(C)c(S(=O)(=O)N2CCC[C@H]2COc2nccc(N3CCC4(CCN(Cc5ccc(F)cc5)C4=O)CC3)n2)c(C)c1 [G_CC-051, 3-[(4-fluorophenyl)methyl]-8-[2-[[(2S)-1-(4-methoxy-2,6-dimethylphenyl)sulfonyl-2-pyrrolidinyl]methoxy]-4-pyrimidinyl]-3,8-diazaspiro[4.5]decan-4-one] | 38 | 98 | –
10 | COc1cc(C)c(S(=O)(=O)N2CCCCC2COc2nccc(N3CCN(c4ccncc4)CC3)n2)c(C)c1 (centres unmarked) [G_CC-013, 2-[[1-(4-methoxy-2,6-dimethylphenyl)sulfonyl-2-piperidinyl]methoxy]-4-[4-(4-pyridyl)-1-piperazinyl]pyrimidine] | 100 | 102 | –
11 | COc1cc(C)c(S(=O)(=O)N(CCOc2nccc(N3CCC4(CCN(c5ccncc5)C4)C3)n2)C2CC2)c(C)c1 (centres unmarked) [Example G-014, N-cyclopropyl-4-methoxy-2,6-dimethyl-N-[2-[[4-[8-(4-pyridyl)-3,8-diazaspiro[4.4]nonan-3-yl]-2-pyrimidinyl]oxy]ethyl]benzenesulfonamide] | 100 | 102 | –
12 | COc1cc(C)c(S(=O)(=O)N(C)C(COc2nccc(N3CCC(CCCN4CCCC4)(c4cccnc4)CC3)n2)c2ccccc2)c(C)c1 (centres unmarked) [G_CC-108, 4-methoxy-N,2,6-trimethyl-N-[1-phenyl-2-[4-[4-pyridin-3-yl-4-(3-pyrrolidin-1-yl-propyl)-piperidin-1-yl]-pyrimidin-2-yl]oxy-ethyl]-benzenesulfonic acid amide] | – | 102 | –
13 | COc1cc(C)c(S(=O)(=O)N(C)C(COc2nccc(N(C)CCN3CCC(O)(c4cccnc4)CC3)n2)c2ccccc2)c(C)c1 (centres unmarked) [G_CC-138, N-[2-[4-[2-(4-hydroxy-4-pyridin-3-yl-piperidin-1-yl)-ethyl-methyl-amino]-pyrimidin-2-yl]oxy-1-phenyl-ethyl]-4-methoxy-N,2,6-trimethyl-benzenesulfonic acid amide] | – | 56 | –
14 | COc1cc(C)c(S(=O)(=O)N2CCC[C@H]2COc2nccc(N3CCn4cc(CN5CCCCC5)nc4C3)n2)c(C)c1 [G_CC-109, 7-[2-[[(2S)-1-[(4-methoxy-2,6-dimethyl-phenyl)sulfonyl]-pyrrolidin-2-yl]-methoxy]-pyrimidin-4-yl]-2-(piperidin-1-yl-methyl)-5,6,7,8-tetrahydro-imidazo[1,2-a]pyrazine] | – | 98 | –
15 | COc1cc(C)c(S(=O)(=O)N2CCCC(Oc3nccc(N4CCC(CCN5CCCCC5)CC4)n3)C2)c(C)c1 (centres unmarked) [G_CC-027] | – | – | 63
